Source: DBAASP
In brackets after ≈: the same amount, converted by molar mass. Blank lines part the entries; values can stand above or below the compound they belong to.

Assays:
Assay in all cases: ≥ marks a high value that may be exact or a test limit, other limits are often not marked, values filed in µg/mL are converted to µM
[1] = tested on: Shigella dysenteriae CMCC 51302
[2] = tested on: Candida albicans ATCC 10231
[3] = tested on: Aspergillus niger ATCC 6275
[4] = tested on: Trichophyton rubrum ATCC 28188
[5] = tested on: Cryptococcus neoformans ATCC 32045
[6] = tested on: Salmonella typhimurium CMCC 50013
[7] = tested on: Streptococcus pyogenes ATCC 12344
[8] = tested on: Listeria monocytogenes CMCC 54002
[9] = tested on: Aspergillus flavus ATCC 9643
[10] = tested on: Saccharomyces cerevisiae ATCC 9763
[11] = tested on: Escherichia coli ATCC 43827
[12] = tested on: Staphylococcus aureus ATCC 33591
[13] = tested on: Pseudomonas aeruginosa ATCC 9027
[14] = tested on: Pseudomonas aeruginosa ATCC 27853
[15] = tested on: Xanthomonas axonopodis pv. glycines ISBF 327
[16] = tested on: Acinetobacter baumannii ATCC BAA-1605
[17] = tested on: Staphylococcus aureus ATCC 29313
[18] = tested on: Bacillus subtilis ATCC 6633
[19] = tested on: Escherichia coli
[20] = tested on: Pseudomonas aeruginosa ATCC 25668
[21] = tested on: Acinetobacter sp.
[22] = tested on: Escherichia coli ATCC 11775
[23] = tested on: Streptococcus mutans Ingbritt
[24] = tested on: Klebsiella pneumoniae
[25] = tested on: Corynebacterium pseudotuberculosis ATCC 19410
[26] = tested on: Salmonella enterica subsp. arizonae
[27] = tested on: Klebsiella aerogenes ATCC 13048
[28] = tested on: Aspergillus fumigatus
[29] = tested on: Mannheimia haemolytica Serovar 6
[30] = tested on: Bibersteinia trehalosi
[31] = tested on: Staphylococcus aureus ATCC 43300
[32] = tested on: Acinetobacter baumannii ATCC 19606
[33] = tested on: Fusobacterium nucleatum ATCC 25586
[34] = tested on: Escherichia coli ATCC 25922
[35] = tested on: Mannheimia haemolytica Serovar 2
[36] = tested on: Klebsiella pneumoniae ATCC 13883
[37] = tested on: Pseudomonas aeruginosa
[38] = tested on: Pasteurella multocida
[39] = tested on: Mannheimia haemolytica Serovar 1
[40] = tested on: Staphylococcus aureus
[41] = tested on: Enterococcus faecalis ATCC 29212
[42] = tested on: Staphylococcus aureus ATCC 29213
[43] = tested on: Serratia marcescens ATCC 8100
[44] = tested on: Escherichia coli ML-35
[45] = tested on: Salmonella enterica subsp. enterica serovar Typhimurium ATCC 14028
[46] = tested on: Escherichia coli D21
[47] = tested on: Staphylococcus epidermidis ATCC 12228
[48] = tested on: Bacillus megaterium Bm11

Structure (SMILES): CC(C)C[C@H](NC(=O)CN)C(=O)N[C@@H](C)C(=O)N[C@@H](CCCN=C(N)N)C(=O)N[C@@H](C)C(=O)N[C@@H](CC(C)C)C(=O)N[C@H](C(=O)N[C@@H](CCCN=C(N)N)C(=O)N[C@@H](CC(C)C)C(=O)N[C@@H](CC(C)C)C(=O)N[C@@H](CCCN=C(N)N)C(=O)N[C@@H](CCC(N)=O)C(=O)N[C@@H](CC(C)C)C(=O)N[C@H](C(=O)N[C@@H](CCCN=C(N)N)C(=O)N[C@@H](CCC(N)=O)C(=O)N[C@@H](CC(C)C)C(=O)N[C@H](C(=O)N[C@@H](CCCN=C(N)N)C(=O)N[C@@H](C)C(=O)O)[C@@H](C)O)[C@@H](C)O)[C@@H](C)O [GLARALTRLLRQLTRQLTRA]
MIC [1]: 4 µM (≈ 9.23 µg/mL) | MIC [2]: 8 µM (≈ 18.5 µg/mL) | MIC [3]: ≥ 32 µM | MIC [4]: ≥ 32 µM | MIC [5]: 16 µM (≈ 36.9 µg/mL) | MIC [6]: 2 µM (≈ 4.62 µg/mL) | MIC [7]: 4 µM (≈ 9.23 µg/mL) | MIC [8]: 4 µM (≈ 9.23 µg/mL) | MIC [9]: 8 µM (≈ 18.5 µg/mL) | MIC [10]: 16 µM (≈ 36.9 µg/mL)

Structure (SMILES): CC[C@H](C)[C@H](NC(=O)[C@H](CCCCN)NC(=O)[C@H](CC(N)=O)NC(=O)[C@@H](NC(=O)[C@@H](NC(=O)[C@H](CCCCN)NC(=O)[C@@H](NC(=O)[C@H](C)NC(=O)[C@@H](NC(=O)[C@H](Cc1cnc[nH]1)NC(=O)CNC(=O)[C@H](C)NC(=O)[C@H](CC(C)C)NC(=O)[C@H](CC(=O)O)NC(=O)[C@H](CCCCN)NC(=O)[C@H](C)NC(=O)[C@H](C)NC(=O)CNC(=O)[C@H](CCCCN)NC(=O)[C@H](CC(C)C)NC(=O)[C@@H](NC(=O)[C@H](CC(=O)O)NC(=O)[C@H](CC(C)C)NC(=O)[C@@H](NC(=O)CN)C(C)C)[C@@H](C)CC)C(C)C)[C@@H](C)O)C(C)C)[C@@H](C)CC)C(N)=O [GVLDILKGAAKDLAGHVATKVINKI]
MIC [11]: ≥ 201 µM | MIC [12]: ≥ 201 µM | MIC [13]: > 201 µM | MIC [14]: 100 µM (≈ 254 µg/mL) | MIC [15]: 25 µM (≈ 63.6 µg/mL) | MIC [16]: ≥ 50.3 µM | MIC [17]: ≥ 50 µM

Now from value to compound, other results behind:

MIC [18]: 2.51 µM (≈ 4.1 µg/mL) | MIC [19]: 1.26 µM (≈ 2.05 µg/mL) | MIC [20]: 0.629 µM (≈ 1.03 µg/mL) | MIC [21]: 2.51 µM (≈ 4.1 µg/mL) | MIC [22]: 0.629 µM (≈ 1.03 µg/mL)
Structure (SMILES): CC[C@H](C)[C@H](NC(C)=O)C(=O)N[C@@H](CCCCN)C(=O)N[C@@H](Cc1c[nH]c2ccccc12)C(=O)N[C@@H](C)C(=O)NCC(=O)N[C@@H](CCCCN)C(=O)N[C@@H](Cc1c[nH]c2ccccc12)C(=O)N[C@@H](Cc1c[nH]c2ccccc12)C(=O)N[C@@H](CCCCN)C(=O)N[C@@H](CC(C)C)C(=O)N[C@@H](Cc1ccccc1)C(=O)N[C@@H](CCCCN)C(N)=O [IKWAGKWWKLFK]

MIC [23]: 16.5 µM (≈ 37.3 µg/mL) | MIC [24]: 0.353 µM (≈ 0.8 µg/mL) | MIC [25]: 8.84 µM (≈ 20 µg/mL) | MIC [26]: 2.96 µM (≈ 6.7 µg/mL) | MIC [27]: ≥ 45.9 µM | MIC [28]: 4.42 µM (≈ 10 µg/mL) | MIC [30]: 1.02 µM (≈ 2.3 µg/mL) | MIC [31]: > 250 µM | MIC [32]: 2.6 µM (≈ 5.88 µg/mL) | MIC [33]: 4.2 µM (≈ 9.5 µg/mL) | MIC [34]: 9.6 µM (≈ 21.7 µg/mL) | MIC [36]: 7.7 µM (≈ 17.4 µg/mL) | MIC [37]: 0.625 µM (≈ 1.41 µg/mL) | MIC [38]: 0.265 µM (≈ 0.6 µg/mL) | MIC [40]: 6.63 µM (≈ 15 µg/mL) | MIC [41]: 78.8 µM (≈ 178 µg/mL) | MIC [42]: 138 µM (≈ 313 µg/mL)
Structure (SMILES): CC[C@H](C)[C@H](NC(=O)[C@H](CCCN=C(N)N)NC(=O)[C@H](CCCN=C(N)N)NC(=O)[C@H](CC(C)C)NC(=O)[C@H](CC(N)=O)NC(=O)[C@@H](N)CCCCN)C(=O)N[C@H](C(=O)N[C@@H](CCCN=C(N)N)C(=O)N[C@@H](CCCCN)C(=O)N[C@H](C(=O)N[C@H](C(=O)N[C@@H](Cc1cnc[nH]1)C(=O)N[C@H](C(=O)N[C@H](C(=O)N[C@@H](CCCCN)C(=O)N[C@@H](CCCCN)C(=O)N[C@@H](Cc1ccc(O)cc1)C(=O)NCC(=O)O)[C@@H](C)CC)[C@@H](C)CC)[C@@H](C)CC)[C@@H](C)CC)[C@@H](C)CC [KNLRRIIRKIIHIIKKYG]
MIC [29]: 0.0884 µM (≈ 0.2 µg/mL) | MIC [35]: 0.265 µM (≈ 0.6 µg/mL) | MIC [39]: 0.663 µM (≈ 1.5 µg/mL)

MIC [43]: 4 µM (≈ 7.65 µg/mL) | MIC [44]: 1 µM (≈ 1.91 µg/mL) | MIC [45]: 0.125 µM (≈ 0.239 µg/mL) | MIC [46]: 0.5 µM (≈ 0.956 µg/mL) | MIC [47]: > 64 µM | MIC [48]: 8 µM (≈ 15.3 µg/mL)
Structure (SMILES): CC(C)C[C@H](NC(=O)[C@H](Cc1ccc(O)cc1)NC(=O)[C@@H]1CCCN1C(=O)[C@@H]1CCCN1C(=O)[C@H](CCCN=C(N)N)NC(=O)[C@@H]1CCCN1C(=O)[C@H](CCCN=C(N)N)NC(=O)[C@H](CCCN=C(N)N)NC(=O)[C@@H](N)CCCN=C(N)N)C(=O)N1CCC[C@H]1C(=O)N[C@@H](CCCN=C(N)N)C(=O)N1CCC[C@H]1C(=O)N[C@@H](CCCN=C(N)N)C(=O)N1CCC[C@H]1C(=O)N1CCC[C@H]1C(=O)O [RRRPRPPYLPRPRPP]
